{"source": "patent US8709511B2", "about": "“External preparation composition for skin comprising ginseng flower or ginseng seed extracts” (Amorepacific Corporation, priority 2008, dated 2014)", "key": {"Human normal fibroblasts": {"test_system": "Human normal fibroblasts", "assay": "Inhibition of oxidative damage of DNA by single cell gel electrophoresis (comet assay), H2O2 challenge", "type": "cell-based", "details": "10 ppm", "protocol": "Human normal fibroblasts were cultured for 24 hours and treated with varying concentrations of the ginseng flower extract prepared in Example 1, the ginseng seed oil prepared in Example 2, the ginseng seed residue extract prepared in Example 3 and vitamin E. After 12 hours, the cells were treated with the positive control H2O2 (final concentration: 10^−3 M), stained by electrophoresis, and then observed with a fluorescence microscope. The image analyzer Komet 3.1 (Kinetic Imaging, England) was used to analyze the tail length (μm) resulting from the digestion of DNA in each of 25 cells."}, "[1]": {"test_system": "human HaCaT keratinocyte monolayer culture system", "assay": "Inhibition of reactive oxygen species production after UVB (DCFH-DA fluorescence)", "type": "cell-based", "protocol": "Antioxidative effect of the ginseng flower extract and the ginseng seed extract was investigated by comparing the capacity of removing reactive oxygen species (ROS) produced in cells in response to UV radiation. The positive control group for the ginseng flower extract was treated with vitamin C (Sigma Co.), which is commonly used to compare antioxidative effect. And, the control group was left untreated. A human HaCaT keratinocyte monolayer culture system (P. Boukamp, German Cancer Research Center, Heidelberg, Germany) was treated with UV (UVB 30 mJ/cm^2) and then with the extract prepared in Example 1 at 10 ppm, 50 ppm and 100 ppm. Then, 2′,7′-dichlorodihydrofluorescein diacetate (DCFH-DA; Molecular Probes, Inc.) was measured with a fluorescence plate reader. Production of ROS was calculated relative to the UV-untreated control group. The positive control group for the ginseng seed extract was treated with Trolox (Aldrich Co.), which is commonly used to compare antioxidative effect. And, the control group was left untreated. […] Then, DCFH-DA (Molecular Probes, Inc.) was measured with a fluorescence plate reader. Inhibition of ROS production was calculated relative to the UV-treated control group."}, "[2]": {"test_system": "matrix metalloproteinase 1 (MMP-1) in human fibroblasts", "assay": "Inhibition of UVB-induced MMP-1 expression (ELISA)", "type": "cell-based", "details": "UVB 40 mJ/cm^2, 10 μM, 2 days; non-UV = 100, UV alone 152", "protocol": "Human fibroblasts were cultured in a 12-well culture plate at a concentration of 10^5 cells/well, and then irradiated with 40 mJ/cm ^2 of UVB. Then, the culture medium was replaced with media containing 1 ppm, 10 ppm and 50 ppm of the ginseng flower extract prepared in Example 1. At 2 days of culture, the cells were harvested, and the amount of produced matrix metalloproteinase 1 (MMP-1) was quantified using an ELISA method. The measurement results were calculated relative to 100 for the non-UV-irradiated control group not treated with the test material. The positive control group was treated with retinoic acid (RA, Sigma Co.)."}, "[3]": {"test_system": "type I procollagen in human fibroblasts", "assay": "Type I procollagen assay (ELISA)", "type": "cell-based", "details": "10 ng/mL, 3 days; positive control set to 100", "protocol": "Human fibroblasts were cultured in a 12-well culture plate at a concentration of 10 ^5 cells/well, and then the medium was replaced with media containing 1 ppm, 10 ppm and 50 ppm of the ginseng flower extract prepared in Example 1 or with media containing 1 ppm and 10 ppm of the ginseng seed oil prepared in Example 2 or the ginseng seed residue extract prepared in Example 3, as shown in Table 4. At 3 days of culture, the cells were harvested, and the amount of the produced type I procollagen was quantified using an ELISA method. The measurement results were calculated relative to 0 for the control group containing neither the ginseng flower extract nor the ginseng seed extract and 100 for the positive control group (human transforming growth factor-β1 (TGF-β1, Roche Co.))."}, "[4]": {"test_system": "C57BL/6 mouse melanocytes (Mel-Ab cells)", "assay": "Melanin synthesis inhibition using mouse melanocytes (Dooley's method)", "type": "cell-based", "details": "72 h, 3 days", "protocol": "Mouse melanocytes were used to examine the melanin synthesis inhibitory effect of the ginseng flower extract prepared in Example 1, the ginseng seed oil prepared in Example 2 and the ginseng seed residue extract prepared in Example 3.\nFirst, C57BL/6 mouse melanocytes (Mel-Ab cells; Dooley, T. P. et al., Skin Pharmacol., 7, pp. 188-200) were cultured in Dulbecco's modified Eagle's medium (DMEM) containing 10% fetal bovine serum, 100 nM 2-O-tetradecanoylphorbol-13-acetate and 1 nM cholera toxin under the condition of 37° C. and 5% CO2 . The cultured Mel-Ab cells were detached with 0.25% trypsin-EDTA and cultured in a 24-well culture plate at a concentration of 10^5 cells/well. Then, from day 2 of culture, each of 10 ppm, 50 ppm and 100 ppm of the ginseng flower extract (Example 1), the ginseng seed oil (Example 2) and the ginseng seed residue extract (Example 3) was continuously added thereto and cultured for 3 days. The positive control group was treated with arbutin (Sigma Co.). Then, the culture media were removed, and the cells were washed with PBS and lysed with 1 N sodium hydroxide. The lysed cells were measured for absorbance at 400 nm, and then the inhibition of melanin production was calculated according to Equation 2. […] Melanin synthesis inhibition (%)=100−[(Absorbance of each test material/Absorbance of control)×100] […]"}, "[5]": {"test_system": "UVB-darkened human skin (upper arm)", "assay": "Whitening on human skin after UVB-induced darkening (colorimeter)", "type": "in vivo", "details": "applied on UVB-irradiated upper arm for 10 weeks; vehicle 0.51 ± 0.13", "protocol": "In order to examine the whitening effect of the ginseng flower extract prepared in Example 1, the ginseng seed oil prepared in Example 2 and the ginseng seed residue extract prepared in Example 3 on human skin, the following test was carried out.\nFirst, for 12 healthy men, a 1.5-cm perforated opaque tape was attached to the upper arm portion of the subjects, and then the attached portion was irradiated with UVB at a dose of about 1.5-2 times the minimal erythemal dose of each subject to induce skin darkening.\nThe color of the skin was measured with the colorimeter CR2002 (Minolta, Japan) at 1-week intervals.\nThen, the difference in skin color (ΔL*) between the time point of initiation of application and the time point of completion of application of each test material was calculated according to Equation 3, and the calculation results are shown in Table 8. The whitening effect is evaluated by measuring the ΔL* value between the sample-applied portion and the control portion. […] L*=L* value at the time of completion of application−L* value at the time of initiation of application [Equation 3]"}}}
{"compound": "vitamin E", "values": [{"measurement": "Tail length (μm)", "setting": "Human normal fibroblasts; 12 h before H2O2 10^-3 M, control 112.4", "value": 68.9, "unit": "μm"}, {"measurement": "Inhibition (%)", "setting": "Human normal fibroblasts; inhibition of oxidative DNA damage (tail length) vs control", "value": 38.7, "unit": "%"}]}
{"compound": "Cc1c(C)c2c(c(C)c1O)CCC(C)(C(=O)O)O2", "note": "(centres unmarked) [Trolox]", "values": [{"measurement": "Inhibition of ROS production (%)", "setting": "[1]; UVB 30 mJ/cm^2, 0.1 mM, relative to UV-treated control", "value": 42.7, "unit": "%"}]}
{"compound": "CC1=C(/C=C/C(C)=C/C=C/C(C)=C/C(=O)O)C(C)(C)CCC1", "note": "[RA, retinoic acid]", "values": [{"measurement": "MMP-1 biosynthesis (%)", "setting": "[2]", "value": 45, "unit": "%"}]}
{"compound": "TGF-β1: human transforming growth factor-β1 (Roche Co.), positive control", "values": [{"measurement": "Type I procollagen biosynthesis (%)", "setting": "[3]", "value": 100, "unit": "%"}]}
{"compound": "O=C1O[C@H]([C@@H](O)CO)C(O)=C1O", "note": "[vitamin C]", "values": [{"measurement": "ROS production (%)", "setting": "[1]; UVB 30 mJ/cm^2, 100 μM, relative to UV-untreated control = 100 (UVB alone 161)", "value": 72, "unit": "%"}]}
{"compound": "OC[C@H]1O[C@@H](Oc2ccc(O)cc2)[C@H](O)[C@@H](O)[C@@H]1O", "note": "[Arbutin, arbutin]", "values": [{"measurement": "inhibition at 100 ppm", "setting": "[4]", "value": 51, "unit": "%"}]}
{"compound": "Oc1ccc(O)cc1", "note": "[Hydroquinone, hydroquinone]", "values": [{"measurement": "Skin color brightness (ΔL*)", "setting": "[5]", "value": "1.89 ± 0.15"}]}
